Several values for one entry are separate records, joined by “and”; a condition that tells them apart may be missing. Equal values may be shown once.
Experiments:
[1] = Water solubility; format: physicochemical; conditions: pH 7.4, aqueous buffer
[2] = system: 3T3 cells; assay: Cytotoxicity by CCK-8 kit, Example 3; format: cell-based; conditions: 48 hours
Protocol: Cytotoxicity: Cytotoxicity of EGL-3Pro and EGL-3Phe were tested by CCK-8 kit on 3T3 cells after incubating for 48 hours at different concentrations.

[3] = system: 3T3 cells; assay: Cryopreservation, post-thaw recovery rate, Example 3; format: cell-based; conditions: frozen −80° C. in medium with 400 mM trehalose
Protocol: Cryopreservation: The cryopreservation effects of EGL-3Pro and EGL-3Phe were tested on 3T3 cells. The cells were incubated with 5 mM or 10 mM EGL-3Pro or 0.5 mM EGL-3Phe or medium only (two control groups) for 72 hours. After incubation, the cells were detached by treating […] pelleted by centrifuging (200×g). The cells were then resuspended in medium with 400 mM trehalose or 5% DMSO (for control 2 group) in cryovials and a small portion of cell suspension were used for counting pre-freeze cell number. The vials were directly put in −80° C. freezer and stored for at least 3 days. The cells were thawed in 37° C. water bath until ice melt, and resuspended in 10 mL fresh medium and pelleted by centrifuging (200×g). The cells were then resuspended in 1 mL fresh medium and counted by cell counter. The recovery rate was obtained by dividing post-thaw lived cell number by pre-freeze lived cell number.

[4] = system: NIH-3T3 cells; assay: Post-thaw viability of cryopreserved NIH-3T3 cells (CCK-8), Example 1; format: cell-based; conditions: Table 3, frozen −80° C. 72 hours, 400 mM trehalose, 10% DMSO set as 100%
Protocol: Cryopreservation protocol. […] Discarded 95% of the old media and added 0.5 mL new DMEM (pH=7.4) with 10% FBS and 400 mM trehalose (filtered with 0.22 μm filter) and re-suspended the cells. • Transferred the cell culture to cryo-tube and stored the tubes at −80° C. for 3 days. • Thawed the cells at 37° C. in a water bath until ice melted. • Counted the cell density in each cryo-tube with cell counter. • Re-cultured the cells in 96-well plate with fresh DMEM (PH=7.4) with 10% FBS. (while keeping cell density the approximately the same for each well). • Used CCK-8 kit to test the post-thaw viability after certain time.

[5] = system: NIH-3T3 cells; assay: Post-thaw total cell recovery of cryopreserved cells (trypan blue exclusion); format: cell-based; conditions: for Total recovery values compared with cells frozen in media containing 5% DMSO: incubated with 10 mM; for Post-thaw recovery (%) 0-hr / Post-thaw recovery (%) 24-hr / Post-thaw recovery (%) 48-hr: incubated with 10 mM for 48 h, frozen −80° C. 72 h in media with 400 mM trehalose, ±SEM
Protocol: The delivery of sugar alcohols into cells makes it possible to turn these molecules into intracellular CPAs. […] Total post-thaw cell recovery, defined as the ratio (%) of post-thaw live cells to the number of initially frozen live cells, which provides a more accurate measure of cryoprotective outcome than cell viability, was used to assess the cryoprotective effects of the diesters.
Systematic studies were then performed by incubating the cells (1) with each of diesters 1-4 (10 mM), (2) with unmodified sorbitol, mannitol, xylitol, or erythritol (10 mM), and (3) in medium without any of the diesters or sugar alcohols, at 37° C. for 48 h. The cells treated with diesters 1-4 and the four sugar alcohols were then transferred to freezing media consisting of DMEM, 10% FBS and 400 mM trehalose. The cells incubated with only the medium were divided into two portions, one being directly transferred to the freezing medium containing 400 mM trehalose (control 1) and the other being placed in a different freezing medium consisting of DMEM, 10% FBS and 5% DMSO but without trehalose (control 2). After being frozen at −80° C. for 72 h, the cells were thawed in a warm water bath at 37° C. until ice melted. The post-thaw cells were either immediately analyzed for their survival or were cultured in growth media (DMEM with 10% FBS) for 24 h and 48 h before being analyzed.
Incubation (for cryopreservation). NIH/3T3 cells were seeded into cell culture treated plates (100 mm) at a density of 2×10^4 cells/mL (10 mL/plate), allowed to adhere overnight and then incubated with different sample solutions (10 mL) for 48 hours at 37° C. under 5% CO2. Control cells were incubated with growth medium.
Cryopreservation. At the end of the incubation, the cells were rinsed with PBS (2 mL) and detached using 0.25% trypsin-EDTA (3 mL). The cells were pelleted (200×g, 5 min) and resuspended in growth medium with 400 mM trehalose except for the control-2 group. For control-2 group, cells were resuspended in growth medium with 5% DMSO (v/v). An aliquot of cells of each group was then removed for counting by a DeNovix Celldrop cell counter to obtain prefreeze number of viable cells. The remaining cell suspension was transferred into a 2 mL cryogenic vial. The vials were directly transferred to −80° C. freezer without controlling cooling rate and stored at −80° C. freezer for 3 days. To thaw, cryogenic vials were removed from −80° C. freezer and suspended in a 37° C. water bath until ice melt. To the contents of each vial 1 mL growth medium was added and centrifuged (200×g , 5 min). The supernatant was discarded and cell pellet was resuspended in 1 mL growth cell medium. An aliquot of cell suspension of each group was then removed for counting with a DeNovix Celldrop cell counter to obtain the number of viable cells at 0-hr post-thaw. The remaining cell suspension was split equally and resuspended into two cell culture treated plates (100 mm) with 10 mL growth medium in each plate. The plates were then maintained for either 24 hours or 48 hours at 37° C. under 5% CO2. After being cultured for either 24 hours or 48 hours, the cells were rinsed with PBS (2 mL) and detached using 0.25% trypsin-EDTA (3 mL). The cells were pelleted (200×g, 5 min) and resuspended in growth medium. The cell suspension was then analyzed by DeNovix Celldrop cell counter to obtain number of viable cells at either 24-hr or 48-hr post-thaw.
Trypan Blue Exclusion Assay. For all time points, a sample of cells was mixed 1:1 in 0.4% trypan blue and counted using a DeNovix Celldrop. Cell recovery was calculated as the ratio of viable cells to the number of cells initially frozen.

[6] = system: NIH-3T3 cells; assay: Cell size measurement after incubation with diesters; format: cell-based; conditions: 10 mM, 48 h incubation (FIG. 11)
Protocol: Incubation (for cell size measurement). NIH/3T3 cells were seeded into 6-well plates at a density of 5×10^4 cells/mL (2 mL/well), allowed to adhere overnight and then incubated with different sample solutions (2 mL) for 48 hours at 37° C. under 5% CO2. Control cells were incubated with culture medium.
Cell size measurement. At the end of the incubation, the cells were rinsed with PBS (1 mL) and detached by 0.25% trypsin-EDTA (1 mL). The cells were pelleted (200×g, 5 min) and resuspended in PBS (1 mL). The average cell size of the cell suspension was then obtained with a DeNovix Celldrop cell counter. Bright field/counted image and histogram for one count were attached as an example (FIG. 19). Average cell diameter and statistical analysis were obtained from the histograms.

[7] = system: NIH-3T3 cells; assay: Cell growth curve; format: cell-based; conditions: 10 mM, incubated for up to 72 hrs (FIG. 17)
Protocol: Cell growth curve. NIH/3T3 cells were seeded into 6-well plates at a density of 5×10^4 cells/mL (2 mL/well), allowed to adhere overnight and then incubated with different sample solutions (2 mL) up to 72 hours at 37° C. under 5% CO2. Control cells were incubated with culture medium. After certain time incubation, cells were rinsed with PBS (1 mL), detached by 0.25% trypsin-EDTA (1 mL), pelleted (200×g, 5 min) and resuspended in PBS (1 mL). The cell number were obtained by a DeNovix Celldrop cell counter. The 0 hour was set as the time point just after overnight adhering.

[8] = system: NIH-3T3 cells; assay: Live/dead fluorescence microscopy of post-thaw cells (calcein-AM / ethidium homodimer-1); format: cell-based; conditions: 24 h post-thaw; incubated with 10 mM for 48 h, frozen in media with 400 mM trehalose (FIG. 14)
Protocol: DIC and Fluorescence images capturing. NIH/3T3 cells were treated as the same as for cryopreservation experiment and were thawed in a 37° C. water bath until ice melt. Cells in each vial were then pelleted (200×g, 5 min), re-suspended in 1 mL fresh growth medium and plated into 96 well plate and grown for 24 hours. Each well was washed with sterile PBS (100 μL). Sterile PBS (200 μL) containing 2 μM calcein-AM and 4 μM ethidium homodimer-1 (EthD-1) was then added to each well. The 96-well plate was then incubated in a CO2 incubator at 37° C. for 30 min. Fresh cells without freezing were plated at similar density in 96-well plate as comparison. DIC and fluorescence microscopy images were captured at 509 and 580 nm on Axioplan 2 fluorescent microscope (Zeiss [Carl Zeiss], Thornwood, NY) with an Axiocam MRm camera (Zeiss). Axiovision 4 software (Zeiss) was used for image acquisition. Digital images were processed with ImageJ (imagej.nih.gov/ij/).

[9] = system: NIH-3T3 cells; assay: Post-thaw total cell recovery of cryopreserved cells (trypan blue exclusion); format: cell-based; conditions: incubated with 5 and 10 mM; frozen in media with 400 mM trehalose (FIG. 12)
[10] = incubated 36 hours at 5 mM without DMSO
[11] = incubated 36 hours at 10 mM without DMSO

Q: For `O=C(OCC(COC(=O)[C@@H]1CCCN1)OC(=O)[C@@H]1CCCN1)[C@@H]1CCCN1` [EGL-3Pro], which solubility [1] is on record?
A: ≥ 10 mM

Q: What about the Cytotoxicity ([2]; up to 10 mM) of the same compound?
A: didn't show any toxicity

Q: What about the “0-hour post thaw recovery (%)” value ([3]; incubated with 5 mM for 72 hours) of the same compound?
A: 50.1 ± 6.6%

Q: And the “0-hour post thaw recovery (%)” value ([3]; incubated with 10 mM for 72 hours)?
A: 65.3 ± 7.3%

Q: With `CCC(=O)OC[C@@H](O)[C@@H](O)[C@H](O)[C@@H](O)COC(=O)CC` [SorbPr2] as the compound, how does the “Post-thaw viability (%), 24 hours post thaw” value [4, 10] read?
A: 94.5 ± 9.1%

Q: What about the “Post-thaw viability (%), 48 hours post-thaw” value [4, 10] of the same compound?
A: 130.1 ± 6.8%

Q: What about the “Post-thaw viability (%), 24 hours post thaw” value [4, 11] of the same compound?
A: 128.9 ± 2.5%

Q: What about the “Post-thaw viability (%), 48 hours post-thaw” value [4, 11] of the same compound?
A: 183.0 ± 2.9%

Q: What about the “Total recovery values compared with cells frozen in media containing 5% DMSO” value [5] of the same compound?
A: comparable to those obtained with cells frozen in media containing 5% DMSO

Q: And the “Post-thaw recovery (%) 0-hr” value [5]?
A: 72.4 ± 3.4%

Q: What about the “Post-thaw recovery (%) 24-hr” value [5] of the same compound?
A: 65.2 ± 2.2%

Q: What about the “Post-thaw recovery (%) 48-hr” value [5] of the same compound?
A: 153.2 ± 8.0%

Q: And the “Average cell diameter relative to cells incubated with only the culture medium” value [6]?
A: small but statistically significant increases

Q: And the “Growth of cells relative to control” value [7]?
A: slightly suppressed

Q: And the “Post-thaw viability/recovery in fluorescence microscopy images” value [8]?
A: much higher recovery than those treated with mannitol or sorbitol

Q: And the “Post-thaw 0 h and 48 h total recovery rates compared with cells incubated only with the media” value [9]?
A: above those of cells incubated only with the media

Q: Which solubility [1] does the source give for `N[C@@H](Cc1ccccc1)C(=O)OCC(COC(=O)[C@@H](N)Cc1ccccc1)OC(=O)[C@@H](N)Cc1ccccc1` [EGL-3Phe] here?
A: ≤ 2 mM

Q: And the Cytotoxicity ([2]; above 1 mM)?
A: apparent cytotoxicity

Q: What about the Cytotoxicity ([2]; at 0.1 mM) of the same compound?
A: no toxicity

Q: What about the Cytotoxicity ([2]; at 0.5 mM) of the same compound?
A: residual cytotoxicity

Q: And the “0-hour post thaw recovery (%)” value ([3]; incubated with 0.5 mM for 72 hours)?
A: 66.2 ± 10.1%

Q: For `CCC(=O)OC[C@@H](O)[C@@H](O)[C@H](O)[C@H](O)COC(=O)CC` [MannPr2], which “Total recovery values compared with cells frozen in media containing 5% DMSO” value [5] is on record?
A: the same as those seen with 5% DMSO

Q: And the “Post-thaw recovery (%) 0-hr” value [5]?
A: 84% and 84.1 ± 3.3%

Q: And the “Post-thaw recovery (%) 24-hr” value [5]?
A: 73.6 ± 3.2%

Q: What about the “Post-thaw recovery (%) 48-hr” value [5] of the same compound?
A: 184% and 184.1 ± 14.2%

Q: And the “Average cell diameter relative to cells incubated with only the culture medium” value [6]?
A: small but statistically significant increases

Q: What about the “Growth of cells relative to control” value [7] of the same compound?
A: slightly suppressed

Q: And the “Post-thaw viability/recovery in fluorescence microscopy images” value [8]?
A: much higher recovery than those treated with mannitol or sorbitol

Source: patent US20240065261A1, “PENETRATING CRYOPROTECTION AGENTS AND METHODS OF MAKING AND USING SAME” (The Research Foundation for The State University of New York, priority 2020, published 2024)
